From PubChem BioAssay (NCI)
“And” between values parts separate entries of the source, which are not always exact repeats. Equal values may be shown once.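 Five concentrations, 48 hours, 96-well plates. GI50 marks 50% less growth. TGI: total growth inhibition.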

Experiments:
Experiment in all cases: NCI anticancer screen, dose series, 48 h
SNB-75 CNS = system: SNB-75 CNS
HCT-15 colon = system: HCT-15 colon
M14 melanoma = system: M14 melanoma
UACC-257 melanoma = system: UACC-257 melanoma
A549 NSCLC = system: A549 NSCLC
HCC-2998 colon = system: HCC-2998 colon
SK-OV-3 ovarian = system: SK-OV-3 ovarian
BT-549 breast = system: BT-549 breast

Structure (SMILES) | GI50 (SNB-75 CNS) [µM] | TGI (SNB-75 CNS) [µM] | GI50 (HCT-15 colon) | TGI (HCT-15 colon) | GI50 (M14 melanoma) | TGI (M14 melanoma) [µM] | GI50 (UACC-257 melanoma) | TGI (UACC-257 melanoma) | GI50 (A549 NSCLC) | TGI (A549 NSCLC) | GI50 (HCC-2998 colon) | TGI (HCC-2998 colon) | GI50 (SK-OV-3 ovarian) | TGI (SK-OV-3 ovarian) | GI50 (BT-549 breast) | TGI (BT-549 breast)
C[C@]12CCC(=O)C[C@@H]1CC[C@@H]1[C@@H]2CC[C@]2(C)[C@@H](OC(=O)N(CCCl)N=O)CC[C@@H]12 | 0.507 | 13.3 | 2.26 µM | 14 µM | 0.752 µM | 22.3 | 1.14 µM | 8.58 µM | 0.353 µM | 11.6 µM | 0.933 µM | 7.95 µM | 1.41 µM | 13.6 µM | 4.87 µM | 21.7 µM
O=C(C(=CN1CCN(C(=O)c2ccco2)C1=S)C(=O)c1ccccc1)c1ccccc1 | 27.4 | > 50 | 2.63 µM | 20.7 µM | 7 µM | 13.8 | 11.7 µM | 21.4 µM | 11.3 µM | 29.1 µM |  |  | 41.8 µM | > 50 µM | 9.96 µM | 26.4 µM
CCC(c1ccccc1)c1cc(C(C)(C)C)cc(C(C)(C)C)c1O (stereo not drawn) |  | 27.2 |  | 30.5 µM |  | 33.9 |  | 28.5 µM |  | 29.8 µM |  | 29.2 µM |  | 28.1 µM |  | 33.4 µM
Cc1c(-c2ccccn2)ccc2ccccc12 |  | > 100 |  | > 100 µM |  | > 100 |  | > 100 µM |  | > 100 µM |  | > 100 µM |  | > 100 µM |  | 
CC(=O)c1c(C)c2cnc(Nc3ccc(N4CCNCC4)cn3)nc2n(C2CCCC2)c1=O | 10.7 | 23.4 | 4.41 µM | 20 µM | 9.13 µM | 23.6 | 5.51 µM | 20.9 µM | 3.69 µM | 19.2 µM | 10.6 µM | 23.9 µM | 9.73 µM | 22.1 µM | 13.6 µM | 27.3 µM
O=C1/C(=C/c2ccc([N+](=O)[O-])o2)Oc2ccc(Cl)cc21 | 1.6 | 5.44 | 0.537 µM | 2.05 µM | 2.01 µM | 4.93 | 1.85 µM | 4.12 µM | 6.45 µM | 59.1 µM | 2.18 µM | 4.56 µM | 13 µM | 47.2 µM | 1.67 µM | 3.32 µM
COC(=O)c1cc2cc(/C=C3/SC(=S)N(N(C(C)=O)C(C)=O)C3=O)oc2n1Cc1ccccc1 | 37.1 | > 100 | 15 µM | 52.1 µM | 11 µM | 40.6 | 25 µM | 74.9 µM | 18.1 µM | 45.9 µM | 17.3 µM | 40.5 µM | 37.4 µM | 89.9 µM | 24.2 µM | 54.2 µM
Clc1ccc(-c2nc(NCc3ccco3)c3ccccc3n2)c(Cl)c1 |  |  | 13.1 µM | 42.7 µM | 17.4 µM | 36.1 |  |  | 20.1 µM | 49.1 µM | 18.2 µM | 46.9 µM | 18.6 µM | > 100 µM |  | 
CCCCCCCCN=C(NCCCCCCCC)SCc1cccc2ccccc12 | 1.66 | 3.18 | 1.19 µM | 3.09 µM | 1.44 µM | 2.86 | 1.75 µM | 3.33 µM | 1.67 µM | 3.13 µM | 1.62 µM | 3.05 µM |  |  |  | 
O=C1C=CC(=O)c2c1nc(CBr)[nH]c2=O |  | > 100 |  | > 100 µM |  | > 100 |  | > 100 µM |  | > 100 µM |  | > 100 µM |  | > 100 µM |  | 
CCOCCOCCOCCOCCOCCOCCOCCOCCOCCO (tested in a mixture with another compound) | 0.728 | 5.34 |  |  | 2.02 µM | 7.08 | 0.739 µM | 2.73 µM | 1.21 µM | 8.66 µM | 1.65 µM | 6.25 µM | 3.91 µM | 13.4 µM | 1.29 µM | 4.75 µM
COc1ccc2c(c1)nnc1c3cccnc3[nH]c21 |  |  | 2.26 µM and 2.3 µM | 50 µM and 12.9 µM | 1.07 µM and 3.26 µM |  | 7.49 µM and 1.91 µM | 41 µM and 10.7 µM | 7.9 µM and 3.53 µM | 42.5 µM and 15.4 µM | 8.23 µM and 10 µM | 18.4 µM and 23.8 µM | 2.69 µM and 2.38 µM | 13.5 µM and 12.5 µM | 3.43 µM and 3.26 µM | 15 µM and 20.5 µM
CSc1nc(SC)c2c(C)cn(COCCOC(=O)c3ccccc3)c2n1 |  | > 100 |  | > 100 µM |  | > 100 |  |  |  | > 100 µM |  | > 100 µM |  | > 100 µM |  | > 100 µM
N=C(CC(=O)Nc1ccccn1)c1ccccc1 |  | > 100 |  | > 100 µM |  | > 100 |  | > 100 µM |  | > 100 µM |  |  |  | > 100 µM |  | > 100 µM
NS(=O)(=O)c1ccc(N=Nc2c[nH]c(=O)c(O)c2)cc1 |  | > 100 |  | > 100 µM |  | > 100 |  | > 100 µM |  | > 100 µM |  |  |  | > 100 µM |  | > 100 µM
CN(CCCCCl)P(=O)(OCc1ccc([N+](=O)[O-])o1)OCC1OC(n2cc([N+](=O)[O-])c(=O)[nH]c2=O)CC1O (stereo not drawn) |  |  | > 100 µM | > 100 µM | 31.3 µM | > 100 | > 100 µM | > 100 µM | > 100 µM | > 100 µM | 37.7 µM | > 100 µM | 96.4 µM | > 100 µM | 46.2 µM | > 100 µM
COc1ccc2nc3ccccc3c(NCCCCN(CCCl)CCCl)c2c1 |  | 2.04 |  | > 43 µM |  |  |  | 3.34 µM |  | 6.25 µM |  | 6.06 µM |  |  |  | 
COc1ccc2c(c1)C(=O)c1c-2n(CCCN(C)C)c(=O)c2cc([N+](=O)[O-])ccc12 | < 0.01 | 2.74 | 0.0239 µM | 1.29 µM | < 0.01 µM | 0.0428 | 0.227 µM | 29.4 µM |  |  | 0.0131 µM | 0.255 µM | < 0.01 µM | 0.666 µM | 0.0159 µM | 0.621 µM
O=C(Oc1c(Cl)cc(Cl)cc1Cl)c1ccccc1Nc1ccnc(C(F)(F)F)c1 |  |  | 2.7 µM | 10.6 µM | 2.13 µM | 4.99 | 12.2 µM | 57.3 µM | 3.9 µM | 71.5 µM |  |  |  |  | 2.42 µM | 6.98 µM
